In US20220306647A1, “NOVEL INDOLE-2-CARBOXAMIDES ACTIVE AGAINST THE HEPATITUS B VIRUS (HBV)” (AICURIS GMBH & CO. KG, priority 2019, published 2022) one finds EC50 and IC50 data, which are given here for 15 compounds.

Assay [1] concerns HBV (HepAD38 cells). Kind of assay: HBV replication assay: determination of HBV DNA from the supernatants of HepAD38 cells. The format is cell-based. The note with it: Hepatitis B virus, 144 h, HBV DNA in HepAD38 supernatant at day 6, qPCR, read-out: Cell activity. On the procedure:
Determination of HBV DNA from the Supernatants of HepAD38 Cells
The anti-HBV activity was analysed in the stable transfected cell line HepAD38, which has been described to secrete high levels of HBV virion particles (Ladner et al., 1997). In brief, HepAD38 cells were cultured at 37° C. at 5% CO2 and 95% humidity in 200 μl maintenance medium, which was Dulbecco's modified Eagle's medium/Nutrient Mixture F-12 (Gibco, Karlsruhe), 10% fetal bovine serum (PAN Biotech Aidenbach) supplemented with 50 μg/ml penicillin/streptomycin (Gibco, Karlsruhe), 2 mM L-glutamine (PAN Biotech, Aidenbach), 400 μg/ml G418 (AppliChem, Darmstadt) and 0.3 μg/ml tetracycline. Cells were subcultured once a week in a 1:5 ratio, but were usually not passaged more than ten times. For the assay 60,000 cells were seeded in maintenance medium without any tetracycline into each well of a 96-well plate and treated with serial half-log dilutions of test compound. To minimize edge effects the outer 36 wells of the plate were not used but were filled with assay medium. On each assay plate six wells for the virus control (untreated HepAD38 cells) and six wells for the cell control (HepAD38 cells treated with 0.3 μg/ml tetracycline) were allocated, respectively. In addition, one plate set with reference inhibitors like BAY 41-4109, entecavir, and lamivudine instead of screening compounds were prepared in each experiment. In general, experiments were performed thrice in triplicates. At day 6 HBV DNA from 100 μl filtrated cell culture supernatant (AcroPrep Advance 96 Filter Plate, […] Supor membran, PALL GmbH, Dreieich) was automatically purified on the MagNa Pure LC instrument using the MagNA Pure 96 DNA and Viral NA Small Volume Kit (Roche Diagnostics, Mannheim) according to the instructions of the manufacturer. EC50 values were calculated from relative copy numbers of HBV DNA In brief, 5 μl of the 100 μl eluate containing HBV DNA were subjected to PCR LC480 Probes Master Kit (Roche) together with 1 μM antisense primer […], 0.5 μM sense primer […], 0.3 μM hybprobes […]-FL and LC640-[…]-PH (TIBMolBiol, Berlin) to a final volume of 12.5 μl. The PCR was performed on the Light Cycler 480 real time system (Roche Diagnostics, Mannheim) using the following protocol: Pre-incubation for 1 min at 95° C., amplification: 40 cycles×(10 sec at 95° C., 50 sec at 60° C., 1 sec at 70° C.), cooling for 10 sec at 40° C. Viral load was quantitated against known standards using HBV plasmid DNA of pCH-9/3091 (Nassal et al., 1990, Cell 63: 1357-1363) and the LightCycler 480 SW 1.5 software (Roche Diagnostics, Mannheim) and EC50 values were calculated using non-linear regression with GraphPad Prism 6 (GraphPad Software Inc., La Jolla, USA).

Assay [2] has as its target T1, HBV core protein (C-terminal truncated core protein, 149 amino acids of the N-terminal assembly domain, BODIPY-FL labelled) (UniProt P03146).
T1 construct: fused on or other part: A single cysteine added after residue 149, at position 150; It carries the BODIPY-FL maleimide label
Kind of assay: Biochemical capsid assembly assay (fluorescence quenching). The note with it: assembly started with NaCl, fluorescence read after 6 min, read-out: Assembly activity. As to the method:
The screening for assembly effector activity was done based on a fluorescence quenching assay published by Zlotnick et al. (2007). The C-terminal truncated core protein containing 149 amino acids of the N-terminal assembly domain fused to a unique cysteine residue at position 150 and was expressed in E. coli using the pET expression system (Merck Chemicals, Darmstadt). Purification of core dimer protein was performed using a sequence of size exclusion chromatography steps. In brief, the cell pellet from 1 L BL21 (DE3) Rosetta2 culture expressing the coding sequence of core protein cloned NdeI/XhoI into expression plasmid pET21b was treated for 1 h on ice with a native lysis buffer (Qproteome Bacterial Protein Prep Kit; Qiagen, Hilden). After a centrifugation step the supernatant was precipitated during 2 h stirring on ice with 0.23 g/ml of solid ammonium sulfate. Following further centrifugation the resulting pellet was resolved in buffer A (100 mM Tris, pH 7.5; 100 mM NaCl; 2 mM DTT) and was subsequently loaded onto a buffer A equilibrated CaptoCore 700 column (GE HealthCare, Frankfurt). The column flow through containing the assembled HBV capsid was dialyzed against buffer N (50 mM NaHCO3 pH 9.6; 5 mM DTT) before urea was added to a final concentration of 3M to dissociate the capsid into core dimers for 1.5 h on ice. The protein solution was then loaded onto a 1L Sephacryl S300 column. After elution with buffer N core dimer containing fractions were identified by SDS-PAGE and subsequently pooled and dialyzed against 50 mM HEPES pH 7.5; 5 mM DTT. To improve the assembly capacity of the purified core dimers a second round of assembly and disassembly starting with the addition of 5 M NaCl and including the size exclusion chromatography steps described above was performed. From the last chromatography step core dimer containing fractions were pooled and stored in aliquots at concentrations between 1.5 to 2.0 mg/ml at −80° C.
Immediately before labelling the core protein was reduced by adding freshly prepared DTT in a final concentration of 20 mM. After 40 min incubation on ice storage buffer and DTT was removed using a Sephadex G-25 column (GE HealthCare, Frankfurt) and 50 mM HEPES, pH 7.5. For labelling 1.6 mg/ml core protein was incubated at 4° C. and darkness overnight with BODIPY-FL maleimide (Invitrogen, Karlsruhe) in a final concentration of 1 mM. After labelling the free dye was removed by an additional desalting step using a Sephadex G-25 column. Labelled core dimers were stored in aliquots at 4° C. In the dimeric state the fluorescence signal of the labelled core protein is high and is quenched during the assembly of the core dimers to high molecular capsid structures. The screening assay was performed in black 384 well microtiter plates in a total assay volume of 10 μl using 50 mM HEPES pH 7.5 and 1.0 to 2.0 μM labelled core protein. Each screening compound was added in 8 different concentrations using a 0.5 log-unit serial dilution starting at a final concentration of 100 μM, 31.6 μM or 10 μM, In any case the DMSO concentration over the entire microtiter plate was 0.5%. The assembly reaction was started by the injection of NaCl to a final concentration of […] which induces the assembly process to approximately 25% of the maximal quenched signal. 6 min after starting the reaction the fluorescence signal was measured using a Clariostar plate reader (BMG Labtech, Ortenberg) with an excitation of 477 nm and an emission of 525 nm. As 100% and 0% assembly control HEPES buffer containing 2.5 M and 0 M NaCl was used. Experiments were performed thrice in triplicates. EC50 values were calculated by non-linear regression analysis using the Graph Pad Prism 6 software (GraphPad Software, La Jolla, USA).

pEC50, pIC50: −log10 of the molar value.

T1 sequence (P03146 whole entry, the tested form may be a part): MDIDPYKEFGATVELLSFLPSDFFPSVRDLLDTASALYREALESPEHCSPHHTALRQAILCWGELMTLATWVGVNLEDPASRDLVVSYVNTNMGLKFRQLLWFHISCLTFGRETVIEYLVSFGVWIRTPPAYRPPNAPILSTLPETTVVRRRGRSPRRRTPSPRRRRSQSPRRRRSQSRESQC

With `O=C(c1cc2ccccc2[nH]1)N1CCc2onc(C(=O)N3CCCC34CC4)c2C1` [Example 1, 2-(3-{4-azaspiro[2.4]heptane-4-carbonyl}-4H,5H,6H,7H-[1,2]oxazolo[4,5-c]pyridine-5-carbonyl)-1H-indole], the pEC50 in assay [1] is 5.00 to 6.00.

For the compound `CN(C(=O)c1noc2c1CN(C(=O)c1cc3ccccc3[nH]1)CC2)C1(c2cocn2)CC1` [Example 2, 5-(1H-indole-2-carbonyl)-N-methyl-N-[1-(1,3-oxazol-4-yl)cyclopropyl]-4H,5H,6H,7H-[1,2]oxazolo[4,5-c]pyridine-3-carboxamide], in assay [2], the pIC50 is greater than 5.30. The pEC50 in assay [1] was greater than 6.00.

As to `CCc1cc(F)cc2[nH]c(C(=O)N3CCc4onc(C(=O)N(C)C5(COC)CC5)c4C3)cc12` [Example 4, 5-(4-ethyl-6-fluoro-1H-indole-2-carbonyl)-N-[1-(methoxymethyl)cyclopropyl]-N-methyl-4H,5H,6H,7H-[1,2]oxazolo[4,5-c]pyridine-3-carboxamide], in assay [2], the pIC50 was greater than 5.30. For the same compound, the pEC50 in assay [1] is greater than 6.00.

For `COCC1(N(C)C(=O)c2noc3c2CN(C(=O)c2cc4c(Cl)cccc4[nH]2)CC3)CC1` [Example 5, 5-(4-chloro-1H-indole-2-carbonyl)-N-[1-(methoxymethyl)cyclopropyl]-N-methyl-4H,5H,6H,7H-[1,2]oxazolo[4,5-c]pyridine-3-carboxamide], the pIC50 in assay [2] is greater than 5.30. Further, in assay [1], the pEC50 was greater than 6.00.

Turning to `COCC1(N(C)C(=O)c2noc3c2CN(C(=O)c2cc4c(F)cc(F)cc4[nH]2)CC3)CC1` [Example 6, 5-(4,6-difluoro-1H-indole-2-carbonyl)-N-[1-(methoxymethyl)cyclopropyl]-N-methyl-4H,5H,6H,7H-[1,2]oxazolo[4,5-c]pyridine-3-carboxamide], in assay [2], the pIC50 was greater than 5.30. Further, the pEC50 in assay [1] was greater than 6.00.

Consider `COCC1(N(C)C(=O)c2noc3c2CN(C(=O)c2cc4ccccc4[nH]2)CC3)CC1` [Example 7, 5-(1H-indole-2-carbonyl)-N-[1-(methoxymethyl)cyclopropyl]-N-methyl-4H,5H,6H,7H-[1,2]oxazolo[4,5-c]pyridine-3-carboxamide], for which the pIC50 in assay [2] was greater than 5.30. Further, the pEC50 in assay [1] is greater than 6.00.

Turning to `CN(C(=O)c1noc2c1CN(C(=O)c1cc3ccccc3[nH]1)CC2)C1(CO)CC1` [Example 8, N-[I1-(hydroxymethyl)cyclopropyl]-5-(1H-indole-2-carbonyl)-N-methyl-4H,5H,6H,7H-[1,2]oxazolo[4,5-c]pyridine-3-carboxamide], the pIC50 in assay [2] is greater than 5.30. The pEC50 in assay [1] was greater than 6.00.

For `CN(C(=O)c1noc2c1CN(C(=O)c1cc3ccccc3[nH]1)CC2)C1(COC(=O)c2ccccc2)CC1` [Example 9, {1-[N-methyl-5-(1H-indole-2-carbonyl)-4H,5H,6H,7H-[1,2]oxazolo[4,5-c]pyridine-3-amido]cyclopropyl}methyl benzoate], the pEC50 in assay [1] was greater than 6.00.

For `O=C(NC1CC1)c1noc2c1CN(C(=O)c1cc3ccccc3[nH]1)CC2` [Example 10, N-cyclopropyl-5-(1H-indole-2-carbonyl)-4H,5H,6H,7H-[1,2]oxazolo[4,5-c]pyridine-3-carboxamide], the pIC50 in assay [2] was greater than 5.30. Further, the pEC50 in assay [1] is greater than 4.00.

With `CN(C(=O)c1noc2c1CN(C(=O)c1cc3ccccc3[nH]1)CC2)C1CC1` [Example 11, N-cyclopropyl-5-(1H-indole-2-carbonyl)-N-methyl-4H,5H,6H,7H-[1,2]oxazolo[4,5-c]pyridine-3-carboxamide], the pIC50 in assay [2] was greater than 5.30. Besides, the pEC50 in assay [1] was greater than 4.00.

For the compound `CN(C(=O)c1cnn2c1CN(C(=O)c1cc3ccccc3[nH]1)CC2)C1(c2ccc(C(=O)O)cc2)CC1` [Example 12, 4-{1-[N-methyl-5-(1H-indole-2-carbonyl)-4H,5H,6H,7H-pyrazolo[1,5-a]pyrazine-3-amido]cyclopropyl}benzoic acid], the pIC50 in assay [2] is greater than 5.30. For the same compound, the pEC50 in assay [1] was greater than 6.00.

`CN(C(=O)c1cnn2c1CN(C(=O)c1cc3ccccc3[nH]1)CC2)C1(c2cccc(C(=O)O)c2)CC1` [Example 13, 3-{1-[N-methyl-5-(1H-indole-2-carbonyl)-4H,5H,6H,7H-pyrazolo[1,5-a]pyrazine-3-amido]cyclopropyl}benzoic acid]: the pIC50 in assay [2] was greater than 5.30. Further, the pEC50 in assay [1] was 5.00 to 6.00.

For `O=C(c1cc2ccccc2[nH]1)N1CCc2onc(C(=O)N3CCC(F)(F)C3)c2C1` [Example 25, 2-[3-(3,3-difluoropyrrolidine-1-carbonyl)-4H,5H,6H,7H-[1,2]oxazolo[4,5-c]pyridine-5-carbonyl]-1H-indole], the pEC50 in assay [1] was 5.00 to 6.00.

For the compound `O=C(c1cc2ccccc2[nH]1)N1CCc2nn3c(c2C1)C(=O)N(CC(F)(F)F)C1(CC3)CC1` [Example 148, 4′-(1H-indole-2-carbonyl)-13′-(2,2,2-trifluoroethyl)-4′,8′,9′,13′-tetraazaspiro[cyclopropane-1,12′-tricyclo[7.5.0.0^2,7]tetradecane]-1′,7′-dien-14′-one], the pIC50 in assay [2] is greater than 5.30.

Turning to `COC(=O)CN1C(=O)c2c3c(nn2CCC12CC2)CCN(C(=O)c1cc2ccccc2[nH]1)C3` [Example 149, methyl 2-[4′-(1H-indole-2-carbonyl)-14′-oxo-4′, 8′,9′,13′-tetraazaspiro[cyclopropane-1,12′-tricyclo[7.5.0.0^2,7]tetradecane]-1′,7′-dien-13′-yl]acetate], the pIC50 in assay [2] was greater than 5.30.
